Target: T1, hERG channel (Homo sapiens, UniProt Q12809)
T1 construct: expressed in transfected cells; host or cells: CHO (Chinese hamster ovary), CHOhERG
Experiment: hERG channel inhibition assay (patch-clamp, CHOhERG cells)
Assay type: cell-based
Details: for IC50 / IC20: CHOhERG cells, whole-cell patch-clamp; for IC20: human, CHO cells stably expressing hERG (CHOhERG); for hERG IC20/TLR7 IC50 / hERG IC20/TLR8 IC50 / hERG IC20/TLR9 IC50: safety ratio
Summary of the method: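 Whole-cell voltage-clamp recordings of IKhERG in CHO cells stably expressing human hERG, stimulated at 0.1 Hz. Compound applied at rising concentrations, each held 3–10 min to reach steady state; current amplitude and kinetics compared with pre-drug control set as 100%.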

T1 sequence (Q12809 whole entry): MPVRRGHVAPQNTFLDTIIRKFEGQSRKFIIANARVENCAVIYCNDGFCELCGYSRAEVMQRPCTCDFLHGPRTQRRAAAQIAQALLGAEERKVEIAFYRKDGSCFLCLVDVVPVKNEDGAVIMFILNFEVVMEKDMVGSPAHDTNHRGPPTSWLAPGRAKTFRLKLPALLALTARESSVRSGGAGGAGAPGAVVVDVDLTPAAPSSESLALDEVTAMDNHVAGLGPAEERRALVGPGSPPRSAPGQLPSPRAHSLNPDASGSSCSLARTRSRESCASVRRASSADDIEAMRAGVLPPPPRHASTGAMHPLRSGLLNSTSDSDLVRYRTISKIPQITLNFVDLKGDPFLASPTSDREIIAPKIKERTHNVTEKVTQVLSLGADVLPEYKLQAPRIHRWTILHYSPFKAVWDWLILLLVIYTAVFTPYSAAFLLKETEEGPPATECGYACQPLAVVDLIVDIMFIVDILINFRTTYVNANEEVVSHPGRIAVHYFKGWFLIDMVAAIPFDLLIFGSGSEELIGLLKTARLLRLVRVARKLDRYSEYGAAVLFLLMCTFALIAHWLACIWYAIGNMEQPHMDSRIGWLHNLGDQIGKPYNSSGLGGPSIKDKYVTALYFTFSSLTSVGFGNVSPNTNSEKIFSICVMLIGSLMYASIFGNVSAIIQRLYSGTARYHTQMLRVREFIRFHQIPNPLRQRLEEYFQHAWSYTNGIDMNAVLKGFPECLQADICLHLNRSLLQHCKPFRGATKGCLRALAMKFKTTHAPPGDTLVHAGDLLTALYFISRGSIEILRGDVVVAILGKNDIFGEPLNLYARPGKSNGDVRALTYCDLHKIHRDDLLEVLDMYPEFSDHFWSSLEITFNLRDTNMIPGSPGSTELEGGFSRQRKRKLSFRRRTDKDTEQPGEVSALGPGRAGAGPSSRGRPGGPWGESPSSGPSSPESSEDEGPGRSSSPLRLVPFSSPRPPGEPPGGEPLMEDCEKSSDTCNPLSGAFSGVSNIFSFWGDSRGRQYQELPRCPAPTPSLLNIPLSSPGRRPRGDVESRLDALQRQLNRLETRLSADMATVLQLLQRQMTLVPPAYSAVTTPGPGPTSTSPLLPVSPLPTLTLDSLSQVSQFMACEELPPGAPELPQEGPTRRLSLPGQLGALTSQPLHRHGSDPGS

Row | SMILES | IC50 | IC20 | hERG IC20/TLR7 IC50 | hERG IC20/TLR8 IC50 | hERG IC20/TLR9 IC50
1 | [2H]c1ccc2c(N3C[C@@H]4CN(Cc5ccc(N[C@H]6CNC[C@H]6F)nc5C)CCN4[C@H](C)C3)ccc(C#N)c2n1 [Example 82, 5-[(4R,9aS)-8-[[6-[[(3S,4R)-4-fluoropyrrolidin-3-yl]amino]-2-methyl-3-pyridyl]methyl]-4-methyl-3,4,6,7,9,9a-hexahydro-JH-pyrazino[1,2-a]pyrazin-2-yl]-2-deuterio-quinoline-8-carbonitrile] | > 20 µM | > 10 µM | >833 | >3333 | >243
2 | [2H]c1ccc2c(N3C[C@@H]4CN(Cc5ccc(N6C[C@H]7NCCO[C@@H]7C6)nc5C)CCN4[C@H](C)C3)ccc(C#N)c2n1 [Example 98, 5-[(4R,9aS)-8-[[6-[(4aR,7aR)-3,4,4a,5,7,7a-hexahydro-2H-pyrrolo[3,4-b][1,4]oxazin-6-yl]-2-methyl-3-pyridyl]methyl]-4-methyl-3,4,6,7,9,9a-hexahydro-1H-pyrazino[1,2-a]pyrazin-2-yl]-2-deuterio-quinoline-8-carbonitrile] | > 20 µM | > 10 µM | >416 | >1000 | >172
3 | C[C@@H]1CN(c2ccc(C#N)c3ncccc23)C[C@@H]2CN(Cc3ccc4c(c3)CNCC4)CCN21 (relative stereo) [Example 1] | > 20 µM | > 10 µM | >588 | >1000 | >172
4 | [2H]c1ccc2c(N3C[C@@H]4CN(Cc5ccc(N6C[C@@H]7C[C@H]6CN7)nc5C)CCN4[C@H](C)C3)ccc(C#N)c2n1 [Example 92, 5-[(4R,9aS)-8-[[6-[(1S,4S)-2,5-diazabicyclo[2.2.1]heptan-2-yl]-2-methyl-3-pyridyl]methyl]-4-methyl-3,4,6,7,9,9a-hexahydro-1H-pyrazino[1,2-a]pyrazin-2-yl]-2-deuterio-quinoline-8-carbonitrile] | > 20 µM | > 10 µM | >1666 | >1111 | >294
5 | [2H]c1ccc2c(N3C[C@@H]4CN(Cc5ccc(N6CC7(CN(C)C7)C6)nc5C)CCN4[C@H](C)C3)ccc(C#N)c2n1 [Example 80, 5-[(4R,9aS)-4-methyl-8-[[2-methyl-6-(6-methyl-2,6-diazaspiro[3.3]heptan-2-yl)-3-pyridyl]methyl]-3,4,6,7,9,9a-hexahydro-1H-pyrazino[1,2-a]pyrazin-2-yl]-2-deuterio-quinoline-8-carbonitrile] | > 20 µM | > 10 µM | >434 | >2000 | >312
6 | Cc1cc(N2CCNCC2)cnc1N1CCN2[C@@H](C1)CN(c1cc(=O)n(C)c3ncccc13)C[C@H]2C [Example 93, 4-[(4R,9aR)-4-methyl-8-(3-methyl-5-piperazin-1-yl-2-pyridyl)-3,4,6,7,9,9a-hexahydro-1H-pyrazino[1,2-a]pyrazin-2-yl]-1-methyl-1,8-naphthyridin-2-one] | > 20 µM | > 10 µM | >1000 | >163 | >53
7 | [2H]c1ccc2c(N3C[C@@H]4CN(Cc5ccc(N6CC7CNCC(C6)O7)nc5C)CCN4[C@H](C)C3)ccc(C#N)c2n1 [Example 83, 5-[(4R,9aS)-4-methyl-8-[[2-methyl-6-(9-oxa-3,7-diazabicyclo[3.3.1]nonan-3-yl)-3-pyridyl]methyl]-3,4,6,7,9,9a-hexahydro-1H-pyrazino[1,2-a]pyrazin-2-yl]-2-deuterio-quinoline-8-carbonitrile] | > 20 µM | > 10 µM | >588 | >1428 | >196

Reference: patent US20220340597A1, “HEXAHYDRO-1H-PYRAZINO[1,2-A]PYRAZINE COMPOUNDS FOR THE TREATMENT OF AUTOIMMUNE DISEASE” (Hoffmann-La Roche Inc., priority 2019, published 2022)
